Article PMC5723347, “Silencing of D-Lactate Dehydrogenase Impedes Glyoxalase System and Leads to Methylglyoxal Accumulation and Growth Inhibition in Rice” (Frontiers in Plant Science, 2017)
Where two headings read alike, the source gives them in different places.

Tested on: T1, OsD-LDH-FL
T1 construct: full-length 561 residues including mitochondrial targeting peptide, N-terminal GST tag kept (pGEX-6P-1), 87 kDa fusion, expressed in E. coli BL21 (DE3)
Test: spectrophotometric cytochrome c reduction at […] nm, Hanes-Woolf
Assay type: biochemical, Oryza sativa subsp. indica
Settings: 200 μM cytochrome c as electron acceptor, pH 8.35, 30°C, 50 mM potassium phosphate

Row | Km (read-out: D-LACTATE / KM) [µM] | Km (read-out: D-2-HB / KM) [µM] | Compound
1 | 41.4 ± 2.93 |  | C[C@@H](O)C(=O)O [D-lactate]
2 |  | 11 ± 0.34 | CC[C@@H](O)C(=O)O [D-2-hydroxybutyrate]
